Assays:
[1] = Stated solid-state and physicochemical properties of the salt (no method described); details: qualitative statement, no conditions given
human NHE-1 = target: T1, human NHE-1 (Homo sapiens, UniProt P19634); assay: FLIPR assay of pHi recovery in transfected LAP-1 cell lines expressing human NHE-1; assay type: cell-based; details: transfected cells expressing human NHE-1, read-out: NHE1 inhibition IC50
T1 construct: expressed in transfected cells; host or cells: LAP-1 (parental line without endogenous NHE activity), G418 selection
T1 sequence (P19634 whole entry): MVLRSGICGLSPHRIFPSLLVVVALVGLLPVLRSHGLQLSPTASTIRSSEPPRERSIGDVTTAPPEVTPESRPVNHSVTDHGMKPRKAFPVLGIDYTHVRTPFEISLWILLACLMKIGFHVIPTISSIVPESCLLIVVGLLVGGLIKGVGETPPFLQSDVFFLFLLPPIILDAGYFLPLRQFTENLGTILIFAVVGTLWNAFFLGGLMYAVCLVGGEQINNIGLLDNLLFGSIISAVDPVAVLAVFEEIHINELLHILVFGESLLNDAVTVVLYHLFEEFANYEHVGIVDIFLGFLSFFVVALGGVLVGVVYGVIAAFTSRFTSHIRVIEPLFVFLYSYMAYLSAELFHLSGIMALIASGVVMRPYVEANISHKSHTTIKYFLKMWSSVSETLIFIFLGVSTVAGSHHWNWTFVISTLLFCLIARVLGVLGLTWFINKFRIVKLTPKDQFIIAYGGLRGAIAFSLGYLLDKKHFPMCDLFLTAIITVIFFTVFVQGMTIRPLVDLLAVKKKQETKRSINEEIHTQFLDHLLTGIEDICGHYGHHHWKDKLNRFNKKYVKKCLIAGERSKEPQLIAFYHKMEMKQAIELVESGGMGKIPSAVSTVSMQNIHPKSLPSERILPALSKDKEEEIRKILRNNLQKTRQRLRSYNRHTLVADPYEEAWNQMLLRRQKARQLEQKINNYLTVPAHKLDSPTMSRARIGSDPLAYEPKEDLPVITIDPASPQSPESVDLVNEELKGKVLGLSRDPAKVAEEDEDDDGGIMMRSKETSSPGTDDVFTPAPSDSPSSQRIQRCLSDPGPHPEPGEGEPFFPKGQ
Procedure: The inhibitory concentration IC50 for NHE-1 inhibition was determined as follows:
The NHE-1 inhibition IC50 was determined in an FLIPR assay by measurement of the recovery in pHi in transfected cell lines which express human NHE-1.
The assay was carried out in an FLIPR (fluorescent imaging plate reader) with black-walled 96-well microtiter plates having clear bases.
The growth medium for the transfected cells (Iscove+10% fetal calf serum) additionally contained G418 as a selection antibiotic in order to ensure the presence of the transfected sequences.
The actual assay started with the removal of the growth medium and addition of 100 μl of loading buffer per well (5 μM BCECF-AM [2′,7′-bis(carboxyethyl)-5- (and -6-)carboxyfluorescein, acetoxymethyl ester] in 20 mM NH4Cl, 115 mM choline chloride, 1 mM MgCl2, 1 mM CaCl2, 5 mM KCl, 20 mM HEPES, 5 mM glucose; pH 7.4 [adjusted with KOH]). The cells were then incubated at 37° C. for 20 minutes. This incubation led to loading of the cells with the fluorescent dye whose fluorescence intensity depends on pHi, and with NH4Cl which makes the cells slightly alkaline.
The nonfluorescent dye precursor BCECF-AM is, as the ester, membrane-permeable. Inside the cell, esterases release the actual BCECF dye which is membrane-impermeable. […]

Row | hygroscopicity [1] | solubility [1] | tendency to racemization [1] | IC50 (human NHE-1) [nM] | Compound
1 | particularly low hygroscopicity | good solubility | low tendency to racemization |  | NC(N)=NC(=O)C[C@H]1c2cc(C(F)(F)F)ccc2C(=O)N1CC(F)(F)F.O=C(O)/C=C/C(=O)O [(S)-N-{2-[3-Oxo-2-(2,2,2-trifluoroethyl)-6-trifluoromethyl-2,3-dihydro-1H-isoindol-1-yl]-acetyl}guanidine hydrogenfumarate hydrate]
2 |  |  |  | 0.3 | NC(N)=NC(=O)C[C@H]1c2cc(C(F)(F)F)ccc2C(=O)N1CC(F)(F)F [(S)-N-{2-[3-Oxo-2-(2,2,2-trifluoroethyl)-6-trifluoromethyl-2,3-dihydro-1H-isoindol-1-yl]-acetyl}guanidine]

From US7531569B2, “Process for preparing (3-oxo-2,3-dihydro-1H-isoindol-1-yl) acetylguanidine derivatives” (sanofi-aventis Deutschland GmbH, priority 2003, dated 2009)
